In patent publication US20260231914A1, “BRAIN-DERIVED NEUROTROPHIC FACTOR-NANO LUCIFERASE TRANSGENIC RODENTS AND METHODS OF USE THEREOF” (University of Florida Research Foundation, Incorporated, priority 2023, published 2026):
Entries after “also recorded” stand apart in the source; their conditions may differ. Structures can show the parent of a compound that is named as a salt.

What was measured:
[1] = tested on: BDNF-NLuc; assay: LOPAC library screening, NLuc activity in cultured Bdnf^NLuc/+ neurons (HTS); type: cell-based, mouse; details: 24 hours; for hit status in repeat screening with 4 different plates of cultured neurons (FIG. 5D): different batch of neurons; for hit: NLuc activity in neurons increased to more than 3× standard deviations over the mean: LOPAC compounds 10 μM, DIV7 neurons, FIGS. 5A-5D
Description: We tested the scalability of the Bdnf^NLuc/+ phenotypic assay by screening the 1280-compound Library of Pharmacologically Active Compounds (LOPAC). We dissected out cortices and hippocampi of 8 Bdnf^NLuc/+ embryos at E18.5 from 2 timed pregnant mice, prepared a suspension of dissociated neurons (10,000 cells/80 μl), transferred 40 ml of the suspension into each of eight 50-ml Falcon centrifuge tubes, used the liquid handling device to plate cells from each aliquot of 40-ml cell suspension onto a 384-well plate (80 μl/well), and cultured neurons.
Using 2 sets of 4 plates each of DIV7 neuronal cultures, we removed 20 μl of medium from each well and then added each LOPAC compound in 20 μl of fresh medium to a well to reach a final concentration of 10 μM. LOPAC compounds (320) were added to wells in the middle 20 columns of each plate, while the first 2 and last 2 columns were used for vehicle controls and positive controls. After 24 hours of incubation, we inverted plates to dump culture medium and then measured NLuc activity in neurons. The NLuc activity in each well is normalized to the average of NLuc activities in 1280 compound-containing wells. […] Compounds that increased the NLuc activity to more than 3× standard deviations (3×SDs) over the mean were considered a hit, and in this case, there are 7 hits in the first set of plates (FIG. 5A) and 10 hits in the second set of plates (FIG. 5B), 7 of which are shared. When the average of duplicate assays for each compound is plotted, we identify the same hits from the second set of plates, with the exception of hit 8 (FIG. 5C). To test the repeatability of the assay in different batches of cultured neurons, we repeated the screening with 4 different plates of cultured neurons.
(§1) Compound treatment and LOPAC library screening. Compound treatment or library screening in primary cultures of Bdnf^NLuc/+ mouse neurons on day 7 in vitro (DIV7) was performed by replacing one-quarter of the culture medium with equal volume of compound-containing medium to yield the desired final concentration for each compound. For the library of pharmacologically active compounds (LOPAC, Millipore), compounds in the original source plates were first dosed using a pintool into 384-well plates containing feeding medium to create a secondary source plate with compounds at 40 μM using the Beckman Coulter's Biomek NXP automated liquid handler (Beckman). 1.6% DMSO and 40 μM (+)-Bay K8644 (Sigma) were added to the first two and the last two columns of the secondary source plate as vehicle and positive control, respectively. Compounds in the secondary source plates were then added to culture neurons in the 384-well plates using a Versette liquid handler. Neurons were treated with compounds for 24 hours in a humidified incubator set to 37° C. and 5% CO2. Luciferase activity was detected the next day using Nano-Glo Luciferase Assay System (Promega) according to the manufacturer's instruction. Luminescence intensity was measured using a microplate reader (FLUOstar Omega, BMG LABTECH) at 460 nm.

[2] = tested on: Bdnf gene expression; details: cited from earlier work; for Bdnf gene expression: literature reports, no concentration given
[3] = tested on: BDNF-NLuc; assay: NLuc activity (BDNF-NLuc levels) in cultured Bdnf^NLuc/+ neurons and media after compound treatment; type: cell-based, mouse
Description: We tested our assay for suitability for HTS by using two positive controls. […] The assay produces a good Z′ for both 10 mM KCl and 10 μM DM (FIGS. 4A-4C) (Zhang et al., 1999). To measure NLuc activities in cells, we can simply invert a plate to dump culture medium and then add the Promega Nano-Glo mix, whereas we must transfer a certain amount of culture medium to a new plate and then add the Promega Nano-Glo mix to measure NLuc activities in media.
Primary cortical/hippocampal cell culture and maintenance. Brains of E18.5 Bdnf^NLuc/+ embryos were collected and placed in ice-cold Ca^2+ and Mg^2+ free Hanks' balanced salt solution (HBSS) supplemented with Penicillin-Streptomycin (Pen/Strep, 50 U/mL, Gibco), 25 mM D-glucose, 1 mM pyruvate, and 20 mM HEPES. Cortices and hippocampi were isolated and digested with papain (~12 U/mL, Worthington) at 37° C. for 20 min. Brain tissues were washed with media containing Neurobasal (Gibco), 4% fetal bovine serum (FBS, HyClone), and Pen/Strep. The tissue was gently triturated and allowed to settle, and the supernatant was filtered through a 40 μm cell strainer. Cells were centrifuged at 420×g for 4 min and resuspended in plating media [Neurobasal, 2% FBS, 2% B27 (Gibco), 2 mM GlutaMAX (Gibco), and Pen/Strep]. 1.0×10^4 or 4.5×10^4 cells were plated onto white Greiner μClear 384-well plate (80 μl/well) or PDL-coated 96-well plate (200 μl/well), respectively. Sixteen hours after plating, 75% of the plating media was replaced by feeding media [Neurobasal, 2% B27, 2 mM GlutaMAX, and Pen/Strep] supplemented with 16 μM 5-fluoro-2′-deoxyuridine (FUdR) to prevent overgrowth of non-neuronal cells. Plating and media changes were performed using a Versette liquid handler (Thermo Fisher Scientific) or an 8-channel pipette for the 384-well and 96-well plates, respectively. Cells were maintained at 37° C. and 5% CO2 incubator.
as §1

[4] = tested on: Bdnf mRNA; assay: qRT-PCR of Bdnf mRNA and Bdnf mRNA variants in DIV7 Bdnf^NLuc/+ neurons; type: cell-based, mouse; details: 5 μM, 24 hours
Description: We treated DIV7 Bdnf^NLuc/+ neurons in a 24-well plate with 5 μM GR127935-HCl for 24 hours, isolated total RNA from cultured cells in each well, and ran quantitative RT-PCR (qRT-PCR) to determine levels of total Bdnf mRNA (coding), as well as four major Bdnf mRNA variants (exon 1, exon 2, exon 4, and exon 6).
qRT-PCR validation of HTS hit. DIV7 Bdnf^NLuc/+ neurons were treated in a 24-well plate with 5 μM GR127935-HCl for 24 hours, after which total RNA was isolated from cultured cells in each well and used to perform quantitative RT-PCR (qRT-PCR) to determine the levels of total Bdnf mRNA (coding), as well as four major Bdnf mRNA variants (exon 1, exon 2, exon 4, and exon 6). Levels of Bdnf mRNA variants were quantified using qRT-PCR with 18S rRNA as the internal control.

[5] = tested on: protein transport from the ER to the Golgi complex; details: Helms and Rothman, 1992; cited from earlier work
[6] = KCl 10 mM added DIV7, measured DIV8 (24 hours)
[7] = DM 2-10 μM added DIV7, measured DIV8, listed as DM

Row | Structure (SMILES) | hit status in repeat screening with 4 different plates of cultured neurons (FIG. 5D) ([1]; 10 μM) | hit: NLuc activity in neurons increased to more than 3× standard deviations over the mean [1] | Bdnf gene expression [2] | also measured
1 | CCCc1c(-c2ccc(O)cc2)nn(-c2ccc(O)cc2)c1-c1ccc(O)cc1 [1,3,5-Tris(4-hydroxyphenyl)-4-propyl-1H-pyrazole] | rediscovered | above dotted line |  | hit: NLuc activity in neurons increased to more than 3× standard deviations over the mean ([1]; listed as PPT): hits
2 | COC(=O)C1=C(C)NC(C)=C([N+](=O)[O-])C1c1ccccc1C(F)(F)F (stereo not shown) [Bay K8644] | rediscovered | hits and above dotted line | stimulates Bdnf gene expression | BDNF levels (NLuc activity) ([3]; Bay K8644 10 μM, DIV7, 24 hours, 3 batches of cultured neurons): increased BDNF levels
3 | COc1ccc(NC(=O)c2ccc(-c3ccc(-c4noc(C)n4)cc3C)cc2)cc1N1CCN(C)CC1 [GR127935-HCl] | rediscovered | above dotted line |  | Bdnf mRNA variant exon 1 [4]: stimulating transcription; Bdnf mRNA variant exon 2 [4]: stimulating transcription; Bdnf mRNA variant exon 4 [4]: stimulating transcription; total Bdnf mRNA (coding) levels ([4]; 18S rRNA internal control): elevated Bdnf mRNA levels; hit: NLuc activity in neurons increased to more than 3× standard deviations over the mean ([1]; listed as GR127935 hydrochloride hydrate): hits
4 | [Cl-].[K+] [KCl] |  |  | stimulates Bdnf gene expression | Bdnf gene expression in cultured neurons ([2]; KCl 50 mM for 90 min (Ghosh et al., 1994; Tao et al., 2002)): increases Bdnf gene expression; levels of BDNF-NLuc in media (NLuc activity) [3, 6]: elevated; also recorded: increased; levels of BDNF-NLuc in neurons (NLuc activity) [3, 6]: elevated; also recorded: increased
5 | C#CCN1C(C)=C(C(=O)OC)C(c2cccc([N+](=O)[O-])c2)C(C(=O)OCC)=C1C (stereo not shown) [N-propargyl nitrendipine] |  | hits and above dotted line |  | 
6 | CCC(C)N(C)C(=O)c1cc2ccccc2c(-c2ccccc2Cl)n1 (stereo not shown) [PK11195] |  | above dotted line |  | 
7 | C[C@H]1CCC/C=C/[C@@H]2C[C@H](O)C[C@H]2[C@H](O)/C=C/C(=O)O1 [brefeldin A] | rediscovered | hits and above dotted line |  | protein transport from the ER to the Golgi complex [5]: inhibit protein transport from the ER to the Golgi complex
8 | CC1(C)[C@H](C(=O)O[C@H](C#N)c2cccc(Oc3ccccc3)c2)[C@@H]1C=C(Br)Br [deltamethrin] |  |  | stimulate Bdnf gene expression | levels of BDNF-NLuc in media (NLuc activity) [3, 7]: stimulated BDNF production; also recorded: increased; levels of BDNF-NLuc in neurons (NLuc activity) [3, 7]: stimulated BDNF production; also recorded: increased
9 | COc1ccc(-c2ccc(=N)n(CCCC(=O)O)n2)cc1 [gabazine] |  | above dotted line |  | hit status on the average of duplicate assays (FIG. 5C) ([1]; 10 μM, average of 2 sets of plates): exception
10 | CCCCCCCCCCCCCC(=O)O[C@@H]1[C@@H](C)[C@@]2(O)[C@@H](C=C(CO)C[C@]3(O)C(=O)C(C)=C[C@@H]23)[C@@H]2C(C)(C)[C@]12OC(C)=O [phorbol-12-myristate 13-acetate] | just under the threshold | hits and above dotted line |  | effect on Bay K8644-induced Bdnf gene expression ([2]; Zafra et al., 1992): enhance the effect of Bay K8644 on Bdnf gene expression
